Experimental data: the NIST ThermoML archive (doi:10.1016/j.jct.2019.02.006)
Numbers after ± are expanded uncertainties. Values belong to the molecule of their own block, whether it stands above or below them.

Settings: Liquid, Ebulliometric method (Recirculating still)

SMILES: COC(=O)CCC(=O)OC [dimethyl 1,4-butanedioate]
vapor or sublimation pressure (363.39 K): 2 ± 0.3 kPa
vapor or sublimation pressure (382.13 K): 5.2 ± 0.3 kPa
vapor or sublimation pressure (393.49 K): 8.3 ± 0.3 kPa

SMILES: COC(=O)CCCC(=O)OC [dimethyl pentanedioate]
vapor or sublimation pressure (376.09 K): 2 ± 0.3 kPa
vapor or sublimation pressure (395.8 K): 5.2 ± 0.3 kPa
vapor or sublimation pressure (407.11 K): 8.3 ± 0.3 kPa

Now from value to molecule:

vapor or sublimation pressure (353.94 K): 101.3 ± 5.1 kPa
SMILES: C1CCCCC1 [cyclohexane]

vapor or sublimation pressure (371.53 K): 101.3 ± 5.1 kPa
SMILES: CCCCCCC [heptane]

vapor or sublimation pressure (390.98 K): 2 ± 0.3 kPa
vapor or sublimation pressure (410.82 K): 5.2 ± 0.3 kPa
vapor or sublimation pressure (422.47 K): 8.3 ± 0.3 kPa
SMILES: COC(=O)CCCCC(=O)OC [dimethyl 1,6-hexanedioate]
